From patent publication US20250340575A1, “4-AMINOPYRROLO[2,1-F][1,2,4]TRIAZINES AND PREPARATION AND USES THEREOF” (Biosplice Therapeutics, Inc., priority 2024, published 2025)

Biological target: recombinant DYRK1A kinase (Homo sapiens, UniProt Q13627)
Assay: DYRK1A kinase assay (Ser/Thr 18 peptide Z-lyte FRET)
Format: biochemical
Details: DYRK1A 0.25 μg/mL, ATP 15 μM, Ser/Thr peptide 18 4 μM, one hour at room temperature, 11-point dose-response from 10 μM

| Structure (SMILES) | IC50 [nM] |
| --- | --- |
| CNc1nc(NC2CCC(F)(F)CC2)nn2ccc(-c3ccc4nnn(CCF)c4n3)c12 [Compound 233, N^2-(4,4-Difluorocyclohexyl)-5-(3-(2-fluoroethyl)-3H-[1,2,3]triazolo[4,5-b]pyridin-5-yl)-N^4-methylpyrrolo[2,1-f][1,2,4]triazine-2,4-diamine] | 8.1 |
| CNc1nc(N[C@H]2CC[C@](C)(O)CC2)nn2ccc(-c3ccc4nnn(CCF)c4n3)c12 [Compound 234, (1r,4r)-4-((5-(3-(2-Fluoroethyl)-3H-[1,2,3]triazolo[4,5-b]pyridin-5-yl)-4-(methylamino)pyrrolo[2,1-f][1,2,4]triazin-2-yl)amino)-1-methylcyclohexan-1-ol] | 0.8 |
| CNc1nc(N[C@H]2CCN(C(C)=O)C[C@H]2F)nn2ccc(-c3ccc4nnn(CCF)c4n3)c12 [Compound 235, 1-((3R,4S)-3-Fluoro-4-((5-(3-(2-fluoroethyl)-3H-[1,2,3]triazolo[4,5-b]pyridin-5-yl)-4-(methylamino)pyrrolo[2,1-f][1,2,4]triazin-2-yl)amino)piperidin-1-yl)ethan-1-one] | 2 |
| CNc1nc(N[C@H]2CCN(C3COC3)C[C@H]2F)nn2ccc(-c3ccc4nnn(CCF)c4n3)c12 [Compound 236, N^2-((3R,4S)-3-fluoro-1-(oxetan-3-yl)piperidin-4-yl)-5-(3-(2-fluoroethyl)-3H-[1,2,3]triazolo[4,5-b]pyridin-5-yl)-N^4-methylpyrrolo[2,1-f][1,2,4]triazine-2,4-diamine] | 2.1 |
| CNc1nc(N[C@@H]2CCN(C)CC2(F)F)nn2ccc(-c3ccc4nnn(CCF)c4n3)c12 [Compound 237, (R)—N^2-(3,3-Difluoro-1-methylpiperidin-4-yl)-5-(3-(2-fluoroethyl)-3H-[1,2,3]triazolo[4,5-b]pyridin-5-yl)-N^4-methylpyrrolo[2,1-f][1,2,4]triazine-2,4-diamine] | 0.7 |
| CNc1nc(N[C@@H]2CCN(C(C)=O)CC2(F)F)nn2ccc(-c3ccc4nnn(CCF)c4n3)c12 [Compound 238, (R)-1-(3,3-Difluoro-4-((5-(3-(2-fluoroethyl)-3H-[1,2,3]triazolo[4,5-b]pyridin-5-yl)-4-(methylamino)pyrrolo[2,1-f][1,2,4]triazin-2-yl)amino)piperidin-1-yl)ethan-1-one] | 1.4 |
| CNc1nc(N[C@@H]2CCN(C3COC3)CC2(F)F)nn2ccc(-c3ccc4nnn(CCF)c4n3)c12 [Compound 239, (R)—N^2-(3,3-Difluoro-1-(oxetan-3-yl)piperidin-4-yl)-5-(3-(2-fluoroethyl)-3H-[1,2,3]triazolo[4,5-b]pyridin-5-yl)-N^4-methylpyrrolo[2,1-f][1,2,4]triazine-2,4-diamine] | 0.6 |
| CNc1nc(N[C@H]2CC[C@](C)(O)CC2)nn2cc(F)c(-c3ccc4nnn(CCF)c4n3)c12 [Compound 248, (1r,4r)-4-((6-Fluoro-5-(3-(2-fluoroethyl)-3H-[1,2,3]triazolo[4,5-b]pyridin-5-yl)-4-(methylamino)pyrrolo[2,1-f][1,2,4]triazin-2-yl)amino)-1-methylcyclohexan-1-ol] | 2 |
| CNc1nc(N[C@H]2CCN(C(C)=O)C[C@H]2F)nn2cc(F)c(-c3ccc4nnn(CCF)c4n3)c12 [Compound 249, 1-((3R,4S)-3-Fluoro-4-((6-fluoro-5-(3-(2-fluoroethyl)-3H-[1,2,3]triazolo[4,5-b]pyridin-5-yl)-4-(methylamino)pyrrolo[2,1-f][1,2,4]triazin-2-yl)amino)piperidin-1-yl)ethan-1-one] | 1.9 |
| CNc1nc(N[C@H]2CCN(C3COC3)C[C@H]2F)nn2cc(F)c(-c3ccc4nnn(CCF)c4n3)c12 [Compound 250, 6-Fluoro-N^2-((3R,4S)-3-fluoro-1-(oxetan-3-yl)piperidin-4-yl)-5-(3-(2-fluoroethyl)-3H-[1,2,3]triazolo[4,5-b]pyridin-5-yl)-N^4-methylpyrrolo[2,1-f][1,2,4]triazine-2,4-diamine] | 0.7 |
| CNc1nc(N[C@@H]2CCN(C)CC2(F)F)nn2cc(F)c(-c3ccc4nnn(CCF)c4n3)c12 [Compound 251, (R)—N^2-(3,3-Difluoro-1-methylpiperidin-4-yl)-6-fluoro-5-(3-(2-fluoroethyl)-3H-[1,2,3]triazolo[4,5-b]pyridin-5-yl)-N^4-methylpyrrolo[2,1-f][1,2,4]triazine-2,4-diamine] | 2.2 |
| CNc1nc(N[C@@H]2CCN(C(C)=O)CC2(F)F)nn2cc(F)c(-c3ccc4nnn(CCF)c4n3)c12 [Compound 252, (R)-1-(3,3-Difluoro-4-((6-fluoro-5-(3-(2-fluoroethyl)-3H-[1,2,3]triazolo[4,5-b]pyridin-5-yl)-4-(methylamino)pyrrolo[2,1-f][1,2,4]triazin-2-yl)amino)piperidin-1-yl)ethan-1-one] | 1.9 |
| CNc1nc(N[C@@H]2CCN(C3COC3)CC2(F)F)nn2cc(F)c(-c3ccc4nnn(CCF)c4n3)c12 [Compound 254, (R)—N^2-(3,3-Difluoro-1-(oxetan-3-yl)piperidin-4-yl)-6-fluoro-5-(3-(2-fluoroethyl)-3H-[1,2,3]triazolo[4,5-b]pyridin-5-yl)-N^4-methylpyrrolo[2,1-f][1,2,4]triazine-2,4-diamine] | 2.2 |
| COCCN1CC[C@H](Nc2nc(N)c3c(-c4ccc5nnn(CC(F)F)c5n4)ccn3n2)[C@H](F)C1 [Compound 256, 5-(3-(2,2-Difluoroethyl)-3H-[1,2,3]triazolo[4,5-b]pyridin-5-yl)-N^2-((3R,4S)-3-fluoro-1-(2-methoxyethyl)piperidin-4-yl)pyrrolo[2,1-f][1,2,4]triazine-2,4-diamine] | 3.5 |
| C[C@]1(O)CC[C@H](Nc2nc(N)c3c(-c4ccc5nnn(CC(F)F)c5n4)c(F)cn3n2)CC1 [Compound 257, (1r,4r)-4-((4-Amino-5-(3-(2,2-difluoroethyl)-3H-[1,2,3]triazolo[4,5-b]pyridin-5-yl)-6-fluoropyrrolo[2,1-f][1,2,4]triazin-2-yl)amino)-1-methylcyclohexan-1-ol] | 1.4 |
| CC(=O)N1CC[C@H](Nc2nc(N)c3c(-c4ccc5nnn(CC(F)F)c5n4)c(F)cn3n2)[C@H](F)C1 [Compound 258, 1-((3R,4S)-4-((4-amino-5-(3-(2,2-difluoroethyl)-3H-[1,2,3]triazolo[4,5-b]pyridin-5-yl)-6-fluoropyrrolo[2,1-f][1,2,4]triazin-2-yl)amino)-3-fluoropiperidin-1-yl)ethan-1-one] | 1.3 |
| Nc1nc(N[C@H]2CCN(C3COC3)C[C@H]2F)nn2cc(F)c(-c3ccc4nnn(CC(F)F)c4n3)c12 [Compound 260, 5-(3-(2,2-Difluoroethyl)-3H-[1,2,3]triazolo[4,5-b]pyridin-5-yl)-6-fluoro-N^2-((3R,4S)-3-fluoro-1-(oxetan-3-yl)piperidin-4-yl)pyrrolo[2,1-f][1,2,4]triazine-2,4-diamine] | 1.8 |
| CN1CC[C@@H](Nc2nc(N)c3c(-c4ccc5nnn(CC(F)F)c5n4)c(F)cn3n2)C(F)(F)C1 [Compound 261, (R)—N^2-(3,3-Difluoro-1-methylpiperidin-4-yl)-5-(3-(2,2-difluoroethyl)-3H-[1,2,3]triazolo[4,5-b]pyridin-5-yl)-6-fluoropyrrolo[2,1-f][1,2,4]triazine-2,4-diamine] | 0.6 |
| CC(=O)N1CC[C@@H](Nc2nc(N)c3c(-c4ccc5nnn(CC(F)F)c5n4)c(F)cn3n2)C(F)(F)C1 [Compound 262, (R)-1-(4-((4-Amino-5-(3-(2,2-difluoroethyl)-3H-[1,2,3]triazolo[4,5-b]pyridin-5-yl)-6-fluoropyrrolo[2,1-f][1,2,4]triazin-2-yl)amino)-3,3-difluoropiperidin-1-yl)ethan-1-one] | 1.3 |
| Nc1nc(N[C@@H]2CCN(C3COC3)CC2(F)F)nn2cc(F)c(-c3ccc4nnn(CC(F)F)c4n3)c12 [Compound 264, (R)—N^2-(3,3-Difluoro-1-(oxetan-3-yl)piperidin-4-yl)-5-(3-(2,2-difluoroethyl)-3H-[1,2,3]triazolo[4,5-b]pyridin-5-yl)-6-fluoropyrrolo[2,1-f][1,2,4]triazine-2,4-diamine] | 1.2 |
| CC[C@]1(O)C[C@H](Nc2nc(NC)c3c(-c4ccc5nnn(CC(F)F)c5n4)ccn3n2)C1 [Compound 267, (1r,3s)-3-((5-(3-(2,2-Difluoroethyl)-3H-[1,2,3]triazolo[4,5-b]pyridin-5-yl)-4-(methylamino)pyrrolo[2,1-f][1,2,4]triazin-2-yl)amino)-1-ethylcyclobutan-1-ol] | 0.5 |
| CNc1nc(NC2CCN(CC(F)F)CC2)nn2ccc(-c3ccc4nnn(CC(F)F)c4n3)c12 [Compound 270, 5-(3-(2,2-Difluoroethyl)-3H-[1,2,3]triazolo[4,5-b]pyridin-5-yl)-N^2-(1-(2,2-difluoroethyl)piperidin-4-yl)-N^4-methylpyrrolo[2,1-f][1,2,4]triazine-2,4-diamine] | 1.7 |
| CNc1nc(NC2CCN(C3COC3)CC2)nn2ccc(-c3ccc4nnn(CC(F)F)c4n3)c12 [Compound 271, 5-(3-(2,2-Difluoroethyl)-3H-[1,2,3]triazolo[4,5-b]pyridin-5-yl)-N^4-methyl-N^2-(1-(oxetan-3-yl)piperidin-4-yl)pyrrolo[2,1-f][1,2,4]triazine-2,4-diamine] | 2.9 |
| CNc1nc(N[C@@H]2CCN(C)C[C@@H]2F)nn2ccc(-c3ccc4nnn(CC(F)F)c4n3)c12 [Compound 272, 5-(3-(2,2-Difluoroethyl)-3H-[1,2,3]triazolo[4,5-b]pyridin-5-yl)-N^2-((3S,4R)-3-fluoro-1-methylpiperidin-4-yl)-N^4-methylpyrrolo[2,1-f][1,2,4]triazine-2,4-diamine] | 5 |
| CNc1nc(N[C@H]2CCN(C)C[C@H]2F)nn2ccc(-c3ccc4nnn(CC(F)F)c4n3)c12 [Compound 273, 5-(3-(2,2-Difluoroethyl)-3H-[1,2,3]triazolo[4,5-b]pyridin-5-yl)-N^2-((3R,4S)-3-fluoro-1-methylpiperidin-4-yl)-N^4-methylpyrrolo[2,1-f][1,2,4]triazine-2,4-diamine] | 2.7 |
| CNc1nc(N[C@H]2CCN(CCF)C[C@H]2F)nn2ccc(-c3ccc4nnn(CC(F)F)c4n3)c12 [Compound 274, 5-(3-(2,2-Difluoroethyl)-3H-[1,2,3]triazolo[4,5-b]pyridin-5-yl)-N^2-((3R,4S)-3-fluoro-1-(2-fluoroethyl)piperidin-4-yl)-N^4-methylpyrrolo[2,1-f][1,2,4]triazine-2,4-diamine] | 3.6 |
